pIC50: −log10 of the molar value. “And” between values parts separate entries of the source, which are not always exact repeats. Identical values can stand only once.
Target: T1, hYAK1 (Homo sapiens, UniProt Q92630)
T1 construct: DET1/DET2-tagged full length hYAK1 was expressed in Drosophila sf9 cells; DET1/DET2 tag (purified on Ni column); made in house; host or cells: "Drosophila sf9 cells" as printed (insect cells)
T1 sequence (Q92630 1-528 isoform Q92630-2): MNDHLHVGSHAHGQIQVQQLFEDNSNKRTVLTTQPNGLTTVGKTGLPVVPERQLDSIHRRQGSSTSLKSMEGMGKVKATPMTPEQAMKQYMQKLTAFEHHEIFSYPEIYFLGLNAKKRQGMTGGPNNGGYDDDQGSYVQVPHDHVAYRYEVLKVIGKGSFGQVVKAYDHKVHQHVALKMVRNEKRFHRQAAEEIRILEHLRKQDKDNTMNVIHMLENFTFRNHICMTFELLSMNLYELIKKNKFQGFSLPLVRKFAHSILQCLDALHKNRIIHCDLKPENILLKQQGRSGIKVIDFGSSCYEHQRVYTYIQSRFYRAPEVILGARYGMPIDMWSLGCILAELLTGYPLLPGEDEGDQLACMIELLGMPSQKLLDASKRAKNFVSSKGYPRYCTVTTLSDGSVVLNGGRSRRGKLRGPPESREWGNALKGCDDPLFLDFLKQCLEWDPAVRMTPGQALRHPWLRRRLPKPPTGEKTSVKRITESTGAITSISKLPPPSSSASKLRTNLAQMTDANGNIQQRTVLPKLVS
Test: FlashPlate kinase assay of hYAK1 (Ni-hYAK1)
Format: biochemical
Protocol: This same assay can be performed on a FlashPlate format in which the plate is coated with MBP or with the S164 peptide by incubation overnight at 4° C. in 100 ul of either substrate dissolved in Sodium Carbonate buffer, pH 8.8. When coating with MBP, a solution of 100 ug/ml MBP was used to coat wells with 100 ul (10 ug) MBP per well. When coating with Ser164, a solution of 0.4 mg/ml (0.25 mM) was used to coat wells with 100 ul (40 ug) Ser164 per well. An example of a FlashPlate assay protocol and typical results are given below:
• 1. Coat Maxisorp plates (Nunk, Immunoplate, Maxisorp™) with MBP or Ser164 as above. • 2. Wash plates once with kinase assay buffer (KB): 25 mM Hepes, pH 7.5; 0.2 mM NaV; 10 mM.-glycerol phosphate; 1 mM Na pyrophosphate • 3. Add enzyme (Ni-hYAK1, diluted in KB), DMSO or inhibitors (in KB) and keep on ice 30 min • 4. Add KB containing Mg/AJP to a [final] of 0.1 mM [.-33P]ATP and 10 mM MgCl2 • 5. Incubate with shaking, 1–2 hrs, RT • 6. Aspirate and wash 6×0.5 ml KB • 7. Read 33P incorporation in FP reader • 8. Blank=No enzyme added • 9. Reaction volume: 25, 50 or 100 ul • 10. 0.5 or 1.0 uCi 33P/0.1 mM ATP • 11. MBP-FP better than basic FP (in house coating) • 12. 37° C. incubation was not better (several time points) • 13. Other incubation times at RT were not better Results: […]

pIC50 (0.1 ug hYAK1)	Structure (SMILES)	pIC50 (0.3 ug hYAK1)
6.72	NC1=N/C(=C2/CCNC(=O)c3[nH]c(Br)cc32)C(=O)N1 [SKF-108752]	6.89 and 6.80
–	COC(=O)[C@@]1(O)C[C@H]2O[C@]1(C)n1c3ccccc3c3c4c(c5c6ccccc6n2c5c31)C(=O)NC4 [Example K252a]	6.26 and 6.37
